Reference: patent publication US20230255955A1, “AMELIORATING AGENT OR PROPHYLACTIC AGENT FOR MUSCLE WEAKNESS SYMPTOM IN DISEASE OR SYNDROME ASSOCIATED WITH METABOLIC DISORDER” (Toray Industries, Inc., priority 2020, published 2023)
Counter-ions that a name gives are not always drawn.

How the values were obtained:
[1] = system: malignant tumor model animals obtained by transplanting A549 cells to nude mice; test: Gripping force of the forelimb (grip test activity meter) in malignant tumor model; assay type: in vivo, mouse; settings: oral, every day for 28 days, 0.125 mg/kg and 0.25 mg/kg (both doses), 28th day
Procedure: (§1) On malignant tumor model animals obtained by transplanting A549 cells, adenocarcinomic human alveolar basal epithelial cells, to nude mice, an ameliorating action on a muscle weakness by administering (−)-17-(cyclopropylmethyl)-3,14β-dihydroxy-4,5α-epoxy-6β-[N-methyl-trans-3-(3-furyl)acrylamide]morphinan hydrochloride (hereinafter, compound 1) produced in accordance with International Publication No. WO 93/015081 was evaluated. […] For this reason, an evaluation of an ameliorating effect and a prophylactic effect on the muscle weakness symptom is considered to be possible.
(§2) A549 cell subculture was carried out using 10% FBS-containing RPMI 1640 medium. For an evaluation of drug efficacy, 7-week old female BALB/C slc/nu/nu mice (Japan SLC, Inc.) were purchased, acclimated for 1 week and then used. The malignant tumor model animal was created as follows. […] The tumor volume was determined by measuring a tumor diameter using a digital vernier caliper by the following calculating formula. […]
(§3) 43rd to 70th days from cell transplantation, compound 1 was orally administered every day to the malignant tumor model animals for 28 days. […] Using a grip test activity meter (Muromachi Kikai Co., Ltd.), a muscle strength was evaluated by measuring a gripping force of the forelimb on 28th day after starting administration of compound 1 (last day of the administration). […]

[2] = system: SAMP8 mice; test: Gripping force of the forelimb (grip test activity meter) in senescence-accelerated model; assay type: in vivo, mouse; settings: oral, every day for 28 days, 0.125 mg/kg and 0.25 mg/kg (both doses), 28th day, vs distilled water administered group, Williams' test P<0.05
Procedure: On senescence-accelerated models, SAMP8 mice, an ameliorating action on a muscle weakness by administering (−)-17-(cyclopropylmethyl)-3,14β-dihydroxy-4,5α-epoxy-6β-[N-methyl-trans-3-(3-furyl)acrylamide]morphinan hydrochloride (compound 1) produced in accordance with International Publication No. WO 93/015081 was evaluated. […] For this reason, an evaluation of an ameliorating effect and a prophylactic effect on the muscle weakness symptom is considered to be possible.
For the evaluation of drug efficacy, 7-week old male SAMP8/TaSlc mice (Japan SLC, Inc.) were purchased, then kept for 9 months and used for the test. For the total of 3 days from 3 days to 1 day before administration of the test substance, a gripping force of the forelimb was measured using a grip test activity meter, an average value of the 3 days was calculated, and then the mice were grouped in such a way that the average of muscle strengths in each group was equal. To clarify that the model is a muscle weakness model, a control of a senescence-accelerated model animal was set. […]
Compound 1 was orally administered to SAMP8 mice every day for 28 days. […] Using a grip test activity meter, the muscle strength was evaluated by measuring a gripping force of the forelimb on 28th day after starting administration of compound 1 (last day of the administration). […]

[3] = system: A549 cells; test: Tumor volume in malignant tumor model (A549 cells transplanted to nude mice); assay type: in vivo, mouse; settings: oral, every day for 28 days, 0.125 mg/kg and 0.25 mg/kg (both doses); tumor volume on 28th day; vs distilled water administered group
Procedure: as §1, §2, §3

[4] = system: cancer cachexia patients; settings: cited from earlier work

Row | SMILES | gripping force (muscle strength) compared with the model control group [1] | increasing action on the gripping force (muscle strength) ([1]; vs distilled water administered group, Dunnett's test P<0.05) | increasing action on the gripping force (muscle strength) [2] | suppressing action on the tumor volume increase [3] | ameliorating action on a muscle weakness symptom (physical function) [4] | lean body mass [4]
1 | CN(C(=O)/C=C/c1ccoc1)[C@@H]1CC[C@@]2(O)[C@H]3Cc4ccc(O)c5c4[C@@]2(CCN3CC2CC2)[C@H]1O5 [compound 1, (−)-17-(cyclopropylmethyl)-3,14β-dihydroxy-4,5α-epoxy-6β-[N-methyl-trans-3-(3-furyl)acrylamide]morphinan hydrochloride] | ameliorated to the extent that is equal to the gripping force (muscle strength) of the model control group | statistically remarkable increasing action on the gripping force (muscle strength) | statistically remarkable increasing action on the gripping force (muscle strength) | did not show any suppressing action on the tumor volume increase | – | –
2 | C[C@](O)(COc1ccc(C#N)cc1)C(=O)Nc1ccc(C#N)c(C(F)(F)F)c1 [enobosarm] | – | – | – | – | the effect thereof is not acknowledged | increases a lean body mass
3 | CN(C)N(C)C(=O)[C@@]1(Cc2ccccc2)CCCN(C(=O)[C@@H](Cc2c[nH]c3ccccc23)NC(=O)C(C)(C)N)C1 [Anamorelin] | – | – | – | – | does not show an ameliorating action on a muscle weakness symptom | increases a lean body mass
